Results taken from patent US20120135975A1, “Substituted Esters as Cannabinoid-1 Receptor Modulators” (MERCK & CO., INC., priority 2006, published 2012).

How the values were obtained:
[1] = target: T1, recombinant human CB2 receptor (Homo sapiens, UniProt P34972); experiment: CB2 receptor functional assay (cAMP); type: cell-based; conditions: CB2 receptor expressed in CHO cells
T1 construct: expressed in transfected cells
Experimental: (§1) The functional activation of CB1 receptor is based on recombinant human CB1 receptor expressed in CHO cells (Felder et al, Mol. Pharmacol. 48: 443-450, 1995). To determine the agonist activity or inverse agonist activity of any test compound, 50 μL of CB1-CHO cell suspension are mixed with test compound and 70 uL assay buffer containing 0.34 mM 3-isobutyl-1-methylxanthine and 5.1 μM of forskolin in 96-well plates. The assay buffer is comprised of Earle's Balanced Salt Solution supplemented with 5 mM MgCl2, 1 mM glutamine, 10 mM HEPES, and 1 mg/mL bovine serum albumin. The mixture is incubated at room temperature for 30 minutes, and terminated by adding 30 μl/well of 0.5M HCl. The total intracellular cAMP level is quantitated using the New England Nuclear Flashplate and cAMP radioimmunoassay kit.
(§2) To determine the antagonist activity of test compound, the reaction mixture also contains 0.5 nM of the agonist CP55940, and the reversal of the CP55940 effect is quantitated. Alternatively, a series of dose response curves for CP55940 is performed with increasing concentration of the test compound in each of the dose response curves.
The functional assay for the CB2 receptor is done similarly with recombinant human CB2 receptor expressed in CHO cells.

[2] = target: T2, recombinant human CB1 receptor (Homo sapiens, UniProt P21554); experiment: Cannabinoid Receptor-1 (CB1) binding assay; conditions: [3H]CP-55940 0.6 nM, receptor expressed in CHO cells
T2 construct: expressed in transfected cells
T2 sequence (P21554 whole entry): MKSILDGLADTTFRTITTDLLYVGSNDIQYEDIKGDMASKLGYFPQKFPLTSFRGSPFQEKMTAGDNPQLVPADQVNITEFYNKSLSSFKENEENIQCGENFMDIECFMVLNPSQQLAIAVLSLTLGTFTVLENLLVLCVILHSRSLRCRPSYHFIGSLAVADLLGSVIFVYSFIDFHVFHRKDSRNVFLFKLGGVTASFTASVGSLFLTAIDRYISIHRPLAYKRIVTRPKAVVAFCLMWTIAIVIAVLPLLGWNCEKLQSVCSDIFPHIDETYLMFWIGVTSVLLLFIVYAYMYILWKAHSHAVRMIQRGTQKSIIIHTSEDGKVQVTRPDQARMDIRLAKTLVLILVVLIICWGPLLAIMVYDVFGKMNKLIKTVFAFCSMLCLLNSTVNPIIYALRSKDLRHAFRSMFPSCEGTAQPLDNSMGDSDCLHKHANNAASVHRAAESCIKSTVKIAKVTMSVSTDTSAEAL
Experimental: (§3) Binding affinity determination is based on recombinant human CB1 receptor expressed in Chinese Hamster Ovary (CHO) cells (Felder et al, Mol. Pharmacol. 48: 443-450, 1995). Total assay volume is 250 μL (240 μL CB1 receptor membrane solution plus 5 μL test compound solution plus 5 μL [3H]CP-55940 solution). Final concentration of [3H]CP-55940 is 0.6 nM. Binding buffer contains 50 mM Tris-HCl, pH7.4, 2.5 mM EDTA, 5 mM MgCl2, 0.5 mg/mL fatty acid free bovine serum albumin and protease inhibitors (Cat#P8340, from Sigma). To initiate the binding reaction, 5 μL of radioligand solution is added, the mixture is incubated with gentle shaking on a shaker for 1.5 hours at 30° C. The binding is terminated by using 96-well harvester and filtering through GF/C filter presoaked in 0.05% polyethylenimine. The bound radiolabel is quantitated using scintillation counter. Apparent binding affinities for various compounds are calculated from IC50 values (DeBlasi et al., Trends Pharmacol Sci 10: 227-229, 1989).

[3] = target: T1, recombinant human CB2 receptor; experiment: CB2 receptor binding assay; conditions: receptor expressed in CHO cells
Experimental: as §3
The binding assay for CB2 receptor is done similarly with recombinant human CB2 receptor expressed in CHO cells.

[4] = target: T2, recombinant human CB1 receptor; experiment: Cannabinoid Receptor-1 (CB1) functional activity assay (cAMP); type: cell-based; conditions: CB1-CHO cells, forskolin-stimulated cAMP
Experimental: as §1, §2

T1 sequence (P34972 whole entry): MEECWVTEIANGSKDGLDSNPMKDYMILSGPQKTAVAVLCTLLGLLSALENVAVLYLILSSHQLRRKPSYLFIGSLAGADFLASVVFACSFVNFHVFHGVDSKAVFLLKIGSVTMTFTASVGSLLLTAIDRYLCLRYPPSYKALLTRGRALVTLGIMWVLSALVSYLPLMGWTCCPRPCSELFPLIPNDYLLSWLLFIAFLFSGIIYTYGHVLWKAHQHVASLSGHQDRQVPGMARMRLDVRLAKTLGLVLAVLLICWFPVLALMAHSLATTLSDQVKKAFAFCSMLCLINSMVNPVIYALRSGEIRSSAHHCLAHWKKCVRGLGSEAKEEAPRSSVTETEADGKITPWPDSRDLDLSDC

`C[C@H](NC(=O)C(C)(C)OC(=O)c1c(Cl)cccc1Cl)[C@@H](Cc1ccc(Cl)cc1)c1cccc(C#N)c1` [Example 30, N-(3-(4-chlorophenyl)-2(S)-(3-cyanophenyl)-1(S)-methylpropyl)-2-(2,6-dichloro-benzoyloxy)-2-methyl-propanamide] was tested, and the “% max in the CB2 functional assay” value [1] was −192 % max, the EC50 [1] was 162 nM and the IC50 [2] was 2.54 nM. The IC50 [3] was 811 nM, the “% max in the CB1 functional assay” value [4] was −157 % max and the EC50 [4] was 1.85 nM.
